Like-named read-outs stand apart in the source and are kept apart here.
Key:
[1] = Pharmacokinetic test in male SD rats, intravenous and intragastric administration, plasma LC-MS/MS; format: in vivo; conditions: rat; for AUC(0-t): read-out: Curve area (0-t) AUC0-last; for half-life: read-out: Half-life T1/2 (converted)
Description: Experimental Embodiment 2: Pharmacokinetic Test of the Compounds of the Present Disclosure
Male SD rats were used as test animals, and LC-MS/MS method was used to determine the drug concentrations in plasma of rats at different time after intravenous and intragastric administration of compound 1A, compound 3A and compound 8A. To study the pharmacokinetic behavior of the compounds in rats and to evaluate their pharmacokinetic characteristics.
2.1 Test Drugs: Compound 1A, Compound 3A and Compound 8A
2.2 Test animals: 12 healthy adult male SD rats, divided into 6 groups with 2 rats in each group. The animal was purchased from Shanghai Sippr-BK laboratory animal Co. Ltd., and the animal production license number was SOCK (Shanghai) 2013-0016.
An appropriate amount of sample was weighed, and appropriate amounts of DMSO, polyethylene glycol-15 hydroxystearate and water were added in turn according to the volume ratio of 10:10:80, and the clarified state of 0.2 mg/mL was reached after stirring and sonication for intravenous administration.
An appropriate amount of sample was weighed and dissolved in 5% Tween 80+90% polyethylene glycol 400+5% polyvinylpyrrolidone K30 solution, and the clarified state of 0.5 mg/mL was reached after stirring and sonication for intragastric administration.
12 male SD rats were divided into 6 groups, and after fasting overnight, groups 1-3 were administered intravenously with a volume of 5 mL/kg; groups 4-6 were administered by gavage with a volume of 10 mL/kg.
After compound 1A, compound 3A and compound 8A were intravenously administered to SD rats, 40 μL of blood was collected at 0.0833, 0.25, 0.5, 1, 2, 4, 8 and 24 hours, respectively, and placed in a test tube containing 2 μL of EDTA-K2. After compound 1A and compound 3A were administered by gavage, 40 μL of blood was collected at 0.25, 0.5, 1, 2, 4, 8 and 24 hours, respectively, and placed in a test tube containing 2 μL of EDTA-K2. The tubes were centrifuged at 4000 rpm for 15 minutes to separate the plasma and stored at −60° C. Animals were allowed to eat 2 hours after administration.
The content of the test compounds in the plasma of rats after intravenous and intragastric administration was determined by LC-MS/MS method. The linear range of the method was 2.00-6000 nmol/L; plasma samples were analyzed after acetonitrile precipitation protein treatment.

androgen receptor (AR) = target: T1, androgen receptor (AR) (Homo sapiens, UniProt P10275); assay: Agonistic effect of test compounds on androgen receptor (AR), LiveBLAzer FRET reporter cell assay; format: cell-based
T1 sequence (P10275 1-920): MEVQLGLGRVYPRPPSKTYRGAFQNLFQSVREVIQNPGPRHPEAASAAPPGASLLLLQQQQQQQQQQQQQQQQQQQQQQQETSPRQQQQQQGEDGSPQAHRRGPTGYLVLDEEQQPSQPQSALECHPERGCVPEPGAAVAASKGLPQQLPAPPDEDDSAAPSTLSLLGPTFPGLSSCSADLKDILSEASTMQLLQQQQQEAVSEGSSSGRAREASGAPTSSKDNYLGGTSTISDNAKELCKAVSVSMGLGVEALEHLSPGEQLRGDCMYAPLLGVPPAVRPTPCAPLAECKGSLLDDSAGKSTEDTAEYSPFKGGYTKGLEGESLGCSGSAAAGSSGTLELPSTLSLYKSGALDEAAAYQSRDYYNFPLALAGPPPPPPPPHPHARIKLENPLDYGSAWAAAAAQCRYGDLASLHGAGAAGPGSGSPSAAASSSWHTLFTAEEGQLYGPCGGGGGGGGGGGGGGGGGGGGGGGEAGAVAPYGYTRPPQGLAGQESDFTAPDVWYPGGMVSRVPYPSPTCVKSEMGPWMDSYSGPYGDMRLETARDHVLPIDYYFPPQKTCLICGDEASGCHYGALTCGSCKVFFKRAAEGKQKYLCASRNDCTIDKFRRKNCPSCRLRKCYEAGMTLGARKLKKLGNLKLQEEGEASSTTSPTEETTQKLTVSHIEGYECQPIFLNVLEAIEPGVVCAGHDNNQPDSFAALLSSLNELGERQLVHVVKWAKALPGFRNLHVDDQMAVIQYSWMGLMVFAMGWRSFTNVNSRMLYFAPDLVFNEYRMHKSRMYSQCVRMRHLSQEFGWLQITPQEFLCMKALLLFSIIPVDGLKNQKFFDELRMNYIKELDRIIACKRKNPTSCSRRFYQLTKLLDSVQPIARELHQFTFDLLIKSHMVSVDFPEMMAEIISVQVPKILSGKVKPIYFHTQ
Description: Experimental Embodiment 1: Agonistic Effect of Test Compounds on Androgen Receptor (AR)
1. Preparation of Compounds, Placing in Plates:
1.1 Preparation of compounds: the test compounds were diluted to the working concentration, and each compound was diluted by 4 times with Echo for 10 concentration gradients, and the compounds were added to a 384-well cell plate according to the microplate layout diagram, with 200 nL per well;
1.2 AR cell assay medium: 87% Opti-MEM (reduced serum medium), 10% Dialyzed FBS (dialyzed fetal bovine serum), 1% NEAA (non-essential amino acids), 1% sodium pyruvate and 1% penicillin-streptomycin;
1.3 culture medium, trypsin and Dulbecco's phosphate buffer were preheated in a 37° C. water bath;
1.4 the original medium in the cell culture flask was removed, and the cells were washed once with 6 mL of Dulbecco's phosphate buffer;
1.5 3.5 mL of trypsin was added to the cell culture flask, and the flask was gently shaken to make the trypsin fully contact with the cells, the trypsin was removed; after aspirating the trypsin, the culture flask was placed in a 37° C. incubator containing 5% CO2 for about 1 minute;
1.6 the cells were resuspended with 10 mL of cell detection medium, and about 0.8 mL of cell suspension was taken out for counting (ViCell XR)
1.7 the cell suspension was diluted with culture medium to 2.5×10^5 cells per mL;
1.8 40 !IL of cell suspension was added to each well of the cell plate, and 40 μL of cell culture medium was added to the other wells, and the cells were incubated in a 37° C. incubator containing 5% CO2 for 16 hours.
2. Reading the Board and Analyzing Data:
2.1 Preparation of solution A: 182 μL of DMSO was added to 200 μg of LiveBLAzer™-FRET B/G/g substrate (CCF4-AM). The solution A was packaged and stored in a refrigerator at −20° C.;
2.2 preparation of 6×substrate buffer: 15 μL of solution A was added to 150 μL of solution B, and the mixture was vortexed evenly, then 2335 μL of solution C was added to the above solution and vortexed evenly;
2.3 the cell culture plate was taken out, and 8μL of 6×substrate buffer was added to each well, shaken for 1 minute, and centrifuged at 1000 rpm for 10 seconds; after sealing the membrane, the cells were incubated at 23° C. for 2 hours, and the plate was read with Envision, and the curve EC50 value was fitted by Prism software.

[2] = intravenous administration, dose 1.1 (1A), 0.69 (3A), 0.716 (8A) mg/kg
[3] = po, intragastric administration, dose 4.92 (1A), 4.2 (3A), 4.59 (8A) mg/kg

Question: For `N#Cc1ccc(N2CC3CC3C2C(O)C(F)(F)F)cc1Cl` (single isomer, unassigned) [Compound 3A], which Vd ([1]; intravenous administration, dose 1.1 (1A), 0.69 (3A), 0.716 (8A) mg/kg, read-out: Apparent volume of distribution Vdss) is on record?
Answer: Its Vd is 1.83 L/kg.

Question: What about the clearance ([1]; intravenous administration, dose 1.1 (1A), 0.69 (3A), 0.716 (8A) mg/kg, read-out: Clearance rate Cl) of the same molecule?
Answer: The clearance was 28.6 mL/min/kg.

Question: And the AUC(0-inf) ([1]; intravenous administration, dose 1.1 (1A), 0.69 (3A), 0.716 (8A) mg/kg, read-out: Curve area (0-inf) AUC0-inf)?
Answer: The AUC(0-inf) was 1.29 µM·h.

Question: What about the AUC(0-t) [1, 2] of the same molecule?
Answer: The AUC(0-t) was 1.28 µM·h.

Question: And the half-life [1, 2]?
Answer: Its half-life is 1.35 h.

Question: And the bioavailability ([1]; oral, intragastric vs intravenous administration, read-out: Bioavailability F)?
Answer: Its bioavailability is 16%.

Question: What about the Cmax ([1]; po, intragastric administration, dose 4.92 (1A), 4.2 (3A), 4.59 (8A) mg/kg, read-out: Blood drug concentration Cmax) of the same molecule?
Answer: Its Cmax is 262 nM.

Question: What about the AUC(0-t) [1, 3] of the same molecule?
Answer: Its AUC(0-t) is 1.25 µM·h.

Question: And the half-life [1, 3]?
Answer: The half-life was 1.8 h.

Question: What about the Tmax ([1]; po, intragastric administration, dose 4.92 (1A), 4.2 (3A), 4.59 (8A) mg/kg, read-out: Peak time Tmax) of the same molecule?
Answer: The Tmax was 3 h.

Question: And the EC50 (androgen receptor (AR))?
Answer: Its EC50 is 0.81 nM.

Reference: US20230012570A1, “BICYCLIC COMPOUND USED AS SELECTIVE ANDROGEN RECEPTOR MODULATOR” (MEDSHINE DISCOVERY INC., priority 2019, published 2023)
